We go through three molecules from US12662449B2 (NACUITY PHARMACEUTICALS, INC., priority 2017, dated 2026).

What all share (assay type): physicochemical
A short description of data set [1]: Micronization of NACA and stability of the 1% NACA formulation. An excerpt: The relation between micronization conditions and an initial increase of the degradation product diNACA was further investigated. […] Therefore, the zirconium oxide milling process was further investigated and successfully optimized regarding particle size distribution, milling parameters and impurity profile for the 1% NACA formulation. […] The particle size distribution by laser diffraction analysis was ×10=1.3 μm, ×50=4.7 μm and ×90=12.3 μm. Batches were prepared and found to be stable for up to 4 weeks at ambient temperature.

A short description of data set [2]: Oxidation of NACA on exposure to air. The conditions noted are these: exposed to air. From the text: These efforts to increase purity focused on the major impurities as measured by HPLC, namely, diNACA, DTT and cyclic DTT. […] Ethanol and methyl t-butyl Ether (MTBE) used in the reduction and solvent-exchange were degassed in an effort to reduce diNACA.
A short description of data set [3]: Solubilization of NACA in ORA-SWEET and water. The method, then: A study was conducted to determine the solubilization of NACA in ORA-SWEET® (Ora-Sweet is a commercially available syrup vehicle containing water, sucrose, glycerin, sorbitol, flavoring, buffering agents (citric acid and/or sodium phosphate), methyl paraben and potassium sorbate, pH 4.2 manufactured by Paddock Laboratories, Inc., Minneapolis, Minnesota). HPLC equipment and glass containers and stirrers were utilized.
Therefore, NACA was dissolved in 50 mL water followed by 50 mL Ora-Sweet, shaken to dissolve in an opaque plastic bottle with closure and provided to subject for self-administration (oral ingestion).

Data set [4] is described as follows: Stability of NACA/excipient mixtures (excipient screening). The following applies: NACA/excipient mixtures after 4 weeks at 40° C./75% RH. The method, then:
NACA Tablets, 250 mg, are packaged in high density polyethylene (HDPE) bottles with foil induction seal and a white polyproplyene screw-top closure. Excipients used for the formulation meet compendial standards. Lactose functions as a filler. Microcrystalline cellulose functions as a filler. Croscarmellose Sodium functions as a disintegrant. Stearic Acid functions as a lubricant. Excipients were screened by assessing the stability of NACA in mixtures with each excipient.

A short description of data set [5]: Stability and dissociation of NACA/urea co-crystal (secondary co-crystal screen). As to the method:
NACA/Urea Co-crystal. A primary co-crystal screen was conducted where 28 potential co-crystal formers (CCFs) were screened (Table 18) in 6 solvent systems under 2 process relevant crystallization conditions, namely, thermal maturation and evaporation. A NACA/urea co-crystal was identified (FIG. 15). […] NMR analysis confirmed an approximate stoichiometric content of urea contained within the material. The material appeared to be stable under ambient conditions and elevated temperature (80° C.) but unstable when stored at high humidity for prolonged periods, showing degradation to the diNACA. […] An additional DSC experiment with post-XRPD analysis confirmed that the exothermic event observed during the DSC cooling cycle is a recrystallization to NACA.

Each structure is given as a SMILES string.

For the molecule `CC(=O)N[C@@H](CS)C(N)=O`, the “Change of degradation product diNACA on micronization” value in data set [1] (stainless steel grinding jars) is “time dependent increase of the degradation product diNACA”; in data set [1] (zirconium oxide jars and balls), “did not lead to an initial increase of the degradation product diNACA”. For the same molecule, the “Oxidation on exposure to air” value in data set [2] is on record as “Oxidation of NACA occurs”. Also, the “Stirring time required to achieve a solution” value in data set [3] (NACA at 80 mg/ml in ORA-SWEET) lay in the range of 20 to 30 min. Moreover, the Dissolution in water entry in data set [3] (water, shaking for 30 seconds) is “readily dissolved”.
Turning to `CC(=O)N[C@H](CS)C(N)=O`, the “% Assay” value in data set [4] amounted to 95.3%.
On to `CC(=O)N[C@@H](CS)C(N)=O.NC(N)=O` [NACA/urea pattern 1 material], for which the “Stability under ambient conditions and elevated temperature” value in data set [5] (ambient conditions and 80° C.) is “stable”. For the same molecule, the “Dissociation in water and high water activity mixtures” value in data set [5] (deionized water and solvent/water mixtures with a high water activity) was “found to dissociate”. Also, the “Dissociation in organic solvents and low water activity mixtures” value in data set [5] (organic solvents and solvent/water mixtures with low water activity) is recorded as “No signs of dissociation”. Also, in data set [5] (stored at high humidity for prolonged periods, degradation to diNACA), the “Stability at high humidity” value is “unstable”.
